Measured values as given in ChEMBL document CHEMBL2157869, “N'-substituted-2'-O,3'-N-carbonimidoyl bridged macrolides: novel anti-inflammatory macrolides without antimicrobial activity” (J Med Chem, 2012).
Activity calls are given as the source filed them. The rule behind the calls is not given here.

Tests used:
[1] = Volume of distribution at steady state in Sprague-Dawley rat at 2 mg/kg, iv and 10 mg/kg, po; type: ADME, organism-based; details: in vivo, read-out: Vdss
Mus musculus [2] = assay: Antiinflammatory activity in BALB/cJ mouse assessed as inhibition of LPS-induced IL-1beta production in lung homogenates at 200 mg/kg, ip administered 2 hrs prior to LPS challenge; type: functional, organism-based; set-up: dose 200 mg/kg
[3] = Volume of distribution at steady state in BALB/cJ mouse at 5 mg/kg, iv and 25 mg/kg, po; type: ADME, organism-based; details: in vivo, read-out: Vdss
Cytochrome P450 3A4 [4] = target: T1, Cytochrome P450 3A4 (Homo sapiens, UniProt P08684)
Description: Inhibition of human recombinant CYP3A4 using 7-BQ as substrate preincubated for 5 to 10 mins before substrate addition

Streptococcus pyogenes = assay: Antibacterial activity against Streptococcus pyogenes ATCC 700294 by CLSI broth microdilution method; type: functional
Mus musculus [5] = assay: Antiinflammatory activity in BALB/cJ mouse assessed as inhibition of LPS-induced CCL2 production in lung homogenates at 200 mg/kg, ip administered 2 hrs prior to LPS challenge; type: functional, organism-based; set-up: dose 200 mg/kg
Mus musculus [6] = assay: Antiinflammatory activity in BALB/cJ mouse assessed as inhibition of LPS-induced IL-6 production in lung homogenates at 200 mg/kg, ip administered 2 hrs prior to LPS challenge; type: functional, organism-based; set-up: dose 200 mg/kg
[7] = Oral bioavailability in BALB/cJ mouse at 25 mg/kg; type: ADME, organism-based; details: in vivo
[8] = Cytotoxicity against human THP1 cells assessed as cell viability at 50 uM after 24 hrs by MTT assay; type: cell-based, THP-1; details: read-out: Activity
[9] = Antiinflammatory activity in mouse splenocytes assessed as inhibition of LPS-induced IL-6 production at 50 uM preincubated for 2 hrs prior to LPS challenge by sandwich ELISA; type: functional; details: Splenocyte
[10] = Half life in Sprague-Dawley rat at 2 mg/kg, iv and 10 mg/kg, po; type: ADME, organism-based; details: in vivo
Mus musculus [11] = assay: Antiinflammatory activity in BALB/cJ mouse assessed as inhibition of LPS-induced CXCL1 production in lung homogenates at 200 mg/kg, ip administered 2 hrs prior to LPS challenge; type: functional, organism-based; set-up: dose 200 mg/kg
[12] = Clearance in BALB/cJ mouse at 5 mg/kg, iv and 25 mg/kg, po; type: ADME, organism-based; details: in vivo
[13] = Antiinflammatory activity in mouse splenocytes assessed as inhibition of LPS-induced IL-6 production at 12 uM preincubated for 2 hrs prior to LPS challenge by sandwich ELISA; type: functional; details: Splenocyte
Mus musculus [14] = assay: Antiinflammatory activity in ip dosed BALB/cJ mouse assessed as decrease in LPS-induced neutrophil number in bronchoalveolar lavage fluid administered 2 hrs prior to LPS challenge measured after 24 hrs post LPS challenge; type: functional, organism-based; details: Lung
Mus musculus [15] = assay: Antiinflammatory activity in BALB/cJ mouse assessed as inhibition of LPS-induced CXCL2 production in lung homogenates at 200 mg/kg, ip administered 2 hrs prior to LPS challenge; type: functional, organism-based; set-up: dose 200 mg/kg
[16] = Antiinflammatory activity in mouse splenocytes assessed as inhibition of LPS-induced IL-6 production in mouse splenocytes at 25 uM preincubated for 2 hrs prior to LPS challenge by sandwich ELISA; type: functional; details: Splenocyte
Cytochrome P450 3A4 [17] = target: T1, Cytochrome P450 3A4; remark: listed apart in the source
Description: Inhibition of human recombinant CYP3A4 using DEF as substrate preincubated for 5 to 10 mins before substrate addition

Mus musculus [18] = assay: Antiinflammatory activity in BALB/cJ mouse assessed as inhibition of LPS-induced TNFalpha level in lung homogenates at 200 mg/kg, ip administered 2 hrs prior to LPS challenge; type: functional, organism-based; set-up: dose 200 mg/kg
[19] = Clearance in Sprague-Dawley rat at 2 mg/kg, iv and 10 mg/kg, po; type: ADME, organism-based; details: in vivo
[20] = Half life in BALB/cJ mouse at 5 mg/kg, iv and 25 mg/kg, po; type: ADME, organism-based; details: in vivo
[21] = Oral bioavailability in Sprague-Dawley rat at 10 mg/kg; type: ADME, organism-based; details: in vivo
Mus musculus [22] = assay: Antiinflammatory activity in ip dosed BALB/cJ mouse assessed as decrease in LPS-induced total cell number in bronchoalveolar lavage fluid administered 2 hrs prior to LPS challenge measured after 24 hrs post LPS challenge; type: functional, organism-based; details: Lung
Mus musculus [23] = assay: Antiinflammatory activity in BALB/cJ mouse assessed as inhibition of LPS-induced GM-CSF production in lung homogenates at 200 mg/kg, ip administered 2 hrs prior to LPS challenge; type: functional, organism-based; set-up: dose 200 mg/kg

T1 sequence (P08684 whole entry): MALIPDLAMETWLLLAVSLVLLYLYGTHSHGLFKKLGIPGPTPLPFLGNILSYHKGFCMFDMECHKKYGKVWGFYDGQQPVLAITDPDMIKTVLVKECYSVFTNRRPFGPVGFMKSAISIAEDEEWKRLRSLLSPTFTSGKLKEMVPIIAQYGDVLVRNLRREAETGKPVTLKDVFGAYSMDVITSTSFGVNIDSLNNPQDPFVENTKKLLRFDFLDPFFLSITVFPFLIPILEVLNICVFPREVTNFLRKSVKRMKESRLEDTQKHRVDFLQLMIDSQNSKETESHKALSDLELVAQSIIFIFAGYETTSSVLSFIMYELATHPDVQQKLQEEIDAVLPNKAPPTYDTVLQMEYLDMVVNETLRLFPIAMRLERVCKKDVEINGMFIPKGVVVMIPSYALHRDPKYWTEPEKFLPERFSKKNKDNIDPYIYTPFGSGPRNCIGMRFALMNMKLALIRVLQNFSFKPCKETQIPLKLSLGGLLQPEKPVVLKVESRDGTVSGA

Vd [1]: 8.6 L/kg
Vd [3]: 23 L/kg
IC50 (Cytochrome P450 3A4 [4]): > 10 µM
MIC (Streptococcus pyogenes): > 64 µg/mL
bioavailability [7]: 62%
half-life [10]: 20.3 h
clearance [12]: 19.8 mL/min/kg
IC50 (Cytochrome P450 3A4 [17]): 7.8 µM
clearance [19]: 12.3 mL/min/kg
half-life [20]: 17.3 h
bioavailability [21]: 33%
Compound: CC[C@H]1OC(=O)[C@H](C)[C@@H](O[C@H]2C[C@@](C)(OC)[C@@H](O)[C@H](C)O2)[C@H](C)[C@@H](O[C@@H]2O[C@H](C)C[C@H]3[C@H]2O/C(=N\C(C)C)N3C)[C@](C)(O)C[C@@H](C)CN(C)[C@H](C)[C@@H](O)[C@]1(C)O
inhibition (Mus musculus [2]): Active
inhibition (Mus musculus [5]): Active
inhibition (Mus musculus [6]): Active
viability at 24 h, 50 µM [8]: 9%
inhibition at 50 µM [9]: 95%
inhibition (Mus musculus [11]): Active
inhibition at 12 µM [13]: 79%
Activity (Mus musculus [14]): Dose-dependent effect
inhibition (Mus musculus [15]): Active
inhibition at 25 µM [16]: 90%
inhibition (Mus musculus [18]): Active
Activity (Mus musculus [22]): Dose-dependent effect
inhibition (Mus musculus [23]): Active
